Source: paper PMC3907829, “Characterization of an Invertebrate-Type Dopamine Receptor of the American Cockroach, Periplaneta americana” (International Journal of Molecular Sciences, 2014)
Several values for one entry are separate records, joined by “and”; a condition that tells them apart may be missing. Equal entries are not always repeated. Entries after “also recorded” stand apart in the source; their conditions may differ. Structures can show the parent of a compound that is named as a salt. Where two headings read alike, the source gives them in different places. Blank lines part the entries; values can stand above or below the compound they belong to.

Assays:
PeaDOP2A receptor [1] = target: T1, PeaDOP2A receptor (Periplaneta americana, UniProt V6DNI7); assay: cAMP production in HEK 293 cells stably expressing PeaDOP2A; format: cell-based; settings: for effect on dopamine-induced increase in [cAMP]i (antagonist, in words): co-incubation with dopamine; for effect on [cAMP]i (agonist, in words): ligand 10 μM
T1 sequence (V6DNI7 entry or part of it): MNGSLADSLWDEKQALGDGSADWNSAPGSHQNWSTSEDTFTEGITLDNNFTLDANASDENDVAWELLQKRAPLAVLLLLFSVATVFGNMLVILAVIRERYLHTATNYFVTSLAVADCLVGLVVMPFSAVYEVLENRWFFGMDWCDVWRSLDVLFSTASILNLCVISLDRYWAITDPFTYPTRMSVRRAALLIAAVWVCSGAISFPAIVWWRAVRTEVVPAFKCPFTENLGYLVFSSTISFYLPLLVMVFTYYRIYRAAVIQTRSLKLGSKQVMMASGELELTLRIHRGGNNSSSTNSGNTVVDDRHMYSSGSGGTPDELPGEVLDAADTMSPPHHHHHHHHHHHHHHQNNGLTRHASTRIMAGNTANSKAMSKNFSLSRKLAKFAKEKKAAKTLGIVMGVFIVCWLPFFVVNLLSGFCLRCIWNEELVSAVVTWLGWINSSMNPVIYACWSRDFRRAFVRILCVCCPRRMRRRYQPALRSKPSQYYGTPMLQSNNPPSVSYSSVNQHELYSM
Procedure: Stably transfected cells were selected in the presence of the antibiotic G418 at 0.8 mg/mL. Isolated foci were propagated and analyzed for the expression of PeaDOP2A/B-HA by immunocytochemistry and Western blot analysis with a commercial anti-HA antibody (anti-HA high affinity; Roche, Penzberg, Germany).

PeaDOP2B receptor [2] = assay: cAMP production in HEK 293 cells stably expressing PeaDOP2B; format: cell-based, Periplaneta americana; settings: for change of intracellular cAMP level: biogenic amines 10 μM
Procedure: Approximately 8 μg pcPeadop2A/B-HA vector was separately introduced into exponentially growing HEK 293 cells (~4 × 10^5 cells per 5 cm Petri dish; Greiner, Frickenhausen, Germany) by a modified calcium phosphate method. Stably transfected cells were selected in the presence of the antibiotic G418 at 0.8 mg/mL. Isolated foci were propagated and analyzed for the expression of PeaDOP2A/B-HA by immunocytochemistry and Western blot analysis with a commercial anti-HA antibody (anti-HA high affinity; Roche, Penzberg, Germany).

[3] = target: A. mellifera DOP2 receptor; settings: read-out: EC50 for dopamine-induced cAMP increase; cited from earlier work
[4] = system: non-transfected HEK 293 cells; settings: dopamine 1 nM to 10 μM
Procedure: Assays to determine the ability of PeaDOP2A/B-HA receptors to stimulate adenylyl cyclase activity were performed as described earlier [108]. PeaDOP2A/B-expressing cells were grown in minimal essential medium with GlutaMAX™ (Invitrogen, Karlsruhe, Germany), 10% (v/v) fetal bovine serum, 1% (v/v) non-essential amino acids, and antibiotics (all from Invitrogen, Karlsruhe, Germany). Cells were incubated with ligands for 30 min at 37 °C in the presence of the phosphodiesterase inhibitor isobutylmethylxanthine (IBMX; Sigma, Taufkirchen, Germany; final concentration 100 μM) and lysed by adding 0.5 mL ice-cold ethanol. After 1 h at 4 °C, the lysate was transferred to a reaction tube and lyophilized. The amount of cAMP produced was determined by using the TRK 432 cyclic AMP assay kit (GE Healthcare, Freiburg, Germany).

[5] = target: Bombyx mori DOP2 receptor; settings: read-out: EC50 for dopamine-induced cAMP increase; cited from earlier work
[6] = target: D. melanogaster DOP2 receptor; settings: read-out: EC50 for dopamine-induced cAMP increase; cited from earlier work
C. felis DOP2 receptor = settings: read-out: EC50 for dopamine-induced cAMP increase; cited from earlier work
PeaDOP2A receptor [7] = target: T1, PeaDOP2A receptor; settings: PeaDOP2A cell line
PeaDOP2B receptor [8] = settings: PeaDOP2B cell line
[9] = agonist, HEK 293 cells expressing PeaDOP2A, 30 min, 37 °C, 100 μM IBMX, read-out: EC50 for increasing [cAMP]i
[10] = agonist, log of molar EC50 (negative values), PeaDOP2A-expressing HEK 293 cells
[11] = antagonist, in the presence of 300 nM dopamine, PeaDOP2A-expressing HEK 293 cells, read-out: IC50 for blocking dopamine (300 nM)-induced cAMP increase
[12] = IC50 for blocking dopamine (300 nM)-induced cAMP increase, antagonist, in the presence of 300 nM dopamine, PeaDOP2A-expressing HEK 293 cells
[13] = log IC50, antagonist, log of molar IC50 (negative values), in the presence of 300 nM dopamine

Structure (SMILES): Cl.Cl.OCCN1CCN(CCC=C2c3ccccc3Sc3ccc(C(F)(F)F)cc32)CC1 (mixture of isomers) [flupentixol, cis(Z)-flupentixol dihydrochloride]
cAMP as percentage of the value with 300 nM dopamine (=100%) (PeaDOP2A receptor [1]; 10 μM antagonist in the presence of 300 nM dopamine, basal level […]): 7.0% | effect on dopamine-induced increase in [cAMP]i (antagonist, in words) (PeaDOP2A receptor [1]; PeaDOP2A-expressing cells): able to counteract the dopamine-induced increase in [cAMP]i fully | effect on dopamine-induced increase in [cAMP]i (antagonist, in words) (PeaDOP2A receptor [1]; PeaDOP2A-expressing cells, listed as cis(Z)-flupentixol): abolished | log IC50 (PeaDOP2A receptor [1]; antagonist, log of molar IC50 (negative values), in the presence of 300 nM dopamine): −8.189

Structure (SMILES): NC1CCc2cc(O)c(O)cc2C1 (racemic) [6,7-ADTN, (±)-2-amino-6,7-dihydroxy-1,2,3,4-tetrahydronaphthalene]
effect on [cAMP]i (agonist, in words) (PeaDOP2A receptor [1]; PeaDOP2A-expressing cells): lead to an increase in [cAMP]i; also recorded: mimicked | EC50 (PeaDOP2A receptor [1]; [9]): 76.4 nM | logEC50 (PeaDOP2A receptor [1]; [10]): −7.117

EC50 (PeaDOP2A receptor [1]; [9]): 382 nM | logEC50 (PeaDOP2A receptor [1]; [10]): −6.418
Structure (SMILES): C=CCN1CCc2c(cc(O)c(O)c2Cl)C(c2ccccc2)C1 (racemic) [6-chloro-APB, (±)-6-Chloro-7,8-dihydroxy-3-allyl-1-phenyl-2,3,4,5-tetrahydro-1H-3-benzazepine]
effect on [cAMP]i (agonist, in words) (PeaDOP2A receptor [1]; PeaDOP2A-expressing cells): lead to an increase in [cAMP]i; also recorded: mimicked

effect on [cAMP]i (agonist, in words) (PeaDOP2A receptor [1]; PeaDOP2A-expressing cells): no effect
Structure (SMILES): NCC(O)c1ccc(O)cc1 (racemic) [octopamine, (±)-octopamine hydrochloride]
change of intracellular cAMP level (PeaDOP2B receptor [2]): None of the biogenic amines induced a change

IC50 (PeaDOP2A receptor [1]; [11]): 1790 nM | IC50 (PeaDOP2A receptor [1]; antagonist, log of molar IC50 (negative values), in the presence of 300 nM dopamine, read-out: log IC50 (converted)): 1790 nM
Structure (SMILES): CN1CCc2cc(Cl)c(O)cc2[C@@H](c2ccccc2)C1 [SCH 23390, R(+)-SCH 23390 hydrochloride]
effect on dopamine-induced increase in [cAMP]i (antagonist, in words) (PeaDOP2A receptor [1]; PeaDOP2A-expressing cells): able to counteract the dopamine-induced increase in [cAMP]i fully

effect on [cAMP]i (agonist, in words) (PeaDOP2A receptor [1]; PeaDOP2A-expressing cells): does not show any effect
Structure (SMILES): Oc1cc2c(cc1O)[C@@H](c1ccccc1)CNCC2 [SKF 38393, R(+)-SKF 38393 hydrochloride]

effect on [cAMP]i (agonist, in words) (PeaDOP2A receptor [1]; PeaDOP2A-expressing cells): lead to an increase in [cAMP]i
Structure (SMILES): CN1CCc2cccc3c2[C@H]1Cc1ccc(O)c(O)c1-3 [apomorphine, apomorphine hydrochloride hemihydrate]

Structure (SMILES): CC(C)C[C@H]1C(=O)N2CCC[C@H]2[C@]2(O)O[C@](NC(=O)[C@@H]3C=C4c5cccc6[nH]c(Br)c(c56)C[C@H]4N(C)C3)(C(C)C)C(=O)N12 [bromocriptine, bromocriptine mesylate]
effect on [cAMP]i (agonist, in words) (PeaDOP2A receptor [1]; PeaDOP2A-expressing cells): fails to increase [cAMP]i

IC50 (PeaDOP2A receptor [1]; [12]): 326 nM | IC50 (PeaDOP2A receptor [1]; [13]): 326 nM
Structure (SMILES): CC(C)(C)[C@]1(O)CCN2C[C@H]3c4ccccc4CCc4cccc(c43)[C@@H]2C1 [butaclamol, S(+)-butaclamol hydrochloride]
effect on dopamine-induced increase in [cAMP]i (antagonist, in words) (PeaDOP2A receptor [1]; PeaDOP2A-expressing cells): able to counteract the dopamine-induced increase in [cAMP]i fully

IC50 (PeaDOP2A receptor [1]; [12]): 2.7 nM | IC50 (PeaDOP2A receptor [1]; [13]): 2.7 nM
Structure (SMILES): CN(C)CCCN1c2ccccc2Sc2ccc(Cl)cc21 [chlorpromazine, Chlorpromazine hydrochloride]
effect on dopamine-induced increase in [cAMP]i (antagonist, in words) (PeaDOP2A receptor [1]; PeaDOP2A-expressing cells): able to counteract the dopamine-induced increase in [cAMP]i fully; also recorded: abolished

Structure (SMILES): NCCc1ccc(O)c(O)c1 [dopamine, dopamine hydrochloride]
change of intracellular cAMP level (PeaDOP2B receptor [2]): None of the biogenic amines induced a change | effect on [cAMP]i, dose-response (PeaDOP2B receptor [2]; dopamine 1 nM to 10 μM): None of the dopamine concentrations showed an effect; also recorded: does not affect [cAMP]i | EC50 [3]: 2200 nM | effect on [cAMP]i, dose-response [4]: None of the dopamine concentrations showed an effect | EC50 [5]: 1300 nM | EC50 [6]: 350 nM | EC50 (C. felis DOP2 receptor): 2400 nM | cAMP production (PeaDOP2A receptor [1]; 10 μM ligand, PeaDOP2A-expressing cells): 300 pmol cAMP/mg protein | EC50 (PeaDOP2A receptor [1]; EC50 for increasing [cAMP]i, agonist, HEK 293 cells expressing PeaDOP2A, 30 min, 37 °C, 100 μM IBMX): 160 nM and 163 nM | concentration for maximal stimulation of cAMP synthesis (PeaDOP2A receptor [1]; PeaDOP2A-expressing cells, dose range 1 nM to 10 μM): ≥ 1 µM | effect on [cAMP]i (agonist, in words) (PeaDOP2A receptor [1]; PeaDOP2A-expressing cells): leads to an increase in [cAMP]i | EC50 (PeaDOP2A receptor [1]; logEC50, agonist, log of molar EC50 (negative values), PeaDOP2A-expressing HEK 293 cells): 166 nM and 163 nM | change in [Ca2+]i upon dopamine incubation (PeaDOP2A receptor [7]): Neither PeaDOP2 receptor cause changes in [Ca^2+]i | change in [Ca2+]i upon dopamine incubation (PeaDOP2B receptor [8]): Neither PeaDOP2 receptor cause changes in [Ca^2+]i

Structure (SMILES): OCCN1CCN(CC/C=C2/c3ccccc3Sc3ccc(C(F)(F)F)cc32)CC1 [flupentixol, cis(Z)-flupentixol dihydrochloride]
IC50 (PeaDOP2A receptor [1]; [11]): 6.5 nM

Structure (SMILES): NCCc1c[nH]cn1 [histamine, histamine dihydrochloride]
change of intracellular cAMP level (PeaDOP2B receptor [2]): None of the biogenic amines induced a change | effect on [cAMP]i (agonist, in words) (PeaDOP2A receptor [1]; PeaDOP2A-expressing cells): no effect

Structure (SMILES): Cl.NCCc1c[nH]c2ccc(O)cc12 [serotonin, 5-hydroxytryptamine hydrochloride]
change of intracellular cAMP level (PeaDOP2B receptor [2]): None of the biogenic amines induced a change | effect on [cAMP]i (agonist, in words) (PeaDOP2A receptor [1]; PeaDOP2A-expressing cells): no effect

effect on [cAMP]i (agonist, in words) (PeaDOP2A receptor [1]; PeaDOP2A-expressing cells): no effect
Structure (SMILES): NCCc1ccc(O)cc1 [tyramine, tyramine hydrochloride]
change of intracellular cAMP level (PeaDOP2B receptor [2]): None of the biogenic amines induced a change
